From patent US20120053155A1, “SYSTEM AND METHOD FOR REVERTING ANTIBIOTIC TOLERANCE OF BACTERIAL PERSISTER CELLS” (Syracuse University, priority 2010, published 2012)

Legend:
[1] = system: P. aeruginosa PAO1 persister cells; assay: Antibiotic (Cip) susceptibility of isolated persister cells; format: cell-based, Pseudomonas aeruginosa; details: for reverting antibiotic tolerance of persisters: different concentrations, 0.85% NaCl buffer, Cip
Protocol: (§1) Pseudomonas aeruginosa PAO1 was routinely grown in Luria-Bertani (LB) medium. To isolate persister cells, an overnight culture was incubated for 18 h at 37° C. with shaking at 200 rpm, washed twice with 0.85% NaCl buffer, resuspended in the same buffer and then treated with 200 μg/mL Cip for 3.5 h to lyse the regular cells. The remaining persister cells were then harvested by centrifugation at 13,200 rpm for 3 min at room temperature and then treated with or without furanones as described below.
(§2) To obtain persisters, 3 mL of overnight culture of P. aeruginosa PAO1 was incubated for 3.5 h with 200 μg/mL Cip to kill all regular cells. The remaining persisters were washed twice with and resuspended in 0.85% NaCl buffer with 1:50 dilution. Samples were taken immediately to count the CFUs of persisters. Then, each 5 mL of 0.85% NaCl buffer containing persister cells was treated for 3.5 h with 0, 0.1, 0.5, 1 and 2 μg/mL of BF8. The amount of ethanol was adjusted to be the same for all samples. CFUs of treated persister cells were counted to understand if BF8 has any effects on the viability of persister cells.
The persister cells treated with BF8 as described above were then treated again with 200 μg/mL Cip to understand if any persister cells restored susceptibility to Cip. The CFUs were counted as described above.

[2] = system: Vibrio harveyi BB886 quorum sensing based on homoserine lactones; assay: Quorum sensing assay (bioluminescence of reporter strain); format: cell-based; details: 10 μg/mL; V. harveyi BB886; bioluminescence at 5 h after inoculation
Protocol: To understand the effects of BFs on quorum sensing, the reporter strain Vibrio harveyi BB886 was used to monitor the quorum sensing based on homoserine lactones. Briefly, an overnight culture of this strain was diluted by 1:5000 in autoinducer bioassay medium with BFs supplemented at different concentrations. The bioluminescence was measured at 5 h after inoculation.

[3] = system: P. aeruginosa PAO1; assay: Effect on persister formation in subcultures (CFU after Cip treatment); format: cell-based, Pseudomonas aeruginosa
Protocol: A P. aerugionsa PAO1 overnight culture was sub-cultured into 6 tubes with 5 mL fresh LB medium in each with the optical density at 600 nm (OD600) adjusted to 0.05. Each tube contained different concentrations of BF8 (0, 5, 10, 30, 50 and 100 μg/mL) diluted from a 60 mg/mL stock solution. The amount of ethanol was adjusted to be the same for all samples to eliminate solvent effects. After 5 h of incubation, 2 mL sample from each tube was washed and plated on LB agar plates for counting colony forming units (“CFU”); while 3 mL of sample was added with 200 μg/mL Cip and incubated for 3.5 h to count the numbers of cells that remained as persisters.
To compare with the effects of sugars known to promote antibiotic uptake by persisters, the above experiment was repeated using 10 mM glucose and mannitol instead of BF8.

[4] = system: P. aeruginosa PAO1 persister cells; assay: Viability of isolated persister cells (CFU); format: cell-based, Pseudomonas aeruginosa; details: up to 2 μg/mL; 0.85% NaCl buffer
Protocol: as §1, §2

[5] = system: P. aeruginosa PAO1 persister cells; assay: DNA microarray analysis of gene expression in persister cells; format: cell-based, Pseudomonas aeruginosa; details: 1 μg/mL, 1 h
Protocol: Persister cells were harvested from a 100 mL 18-h culture of P. aeruginosa PAO1. The isolated persister cells were resuspended in 0.85% NaCl buffer supplemented with 1 μg/mL (3.7 μM) BF8 or with the same amount of ethanol (4.17 μL to eliminate the solvent effect as the control). After incubation at 37° C. for 1 h, cells were collected by centrifugation at 10,000 rpm for 5 minutes at 4° C., transferred to 2 mL pre-cooled microcentrifuge tubes and frozen in an ethanol-dry ice bath. The cell pellets were stored at −80° C. until RNA isolation.
The RNeasy Mini Kit (Qiagen) was used to isolate total RNA. First, the cells were lysed by beating at 4,800 oscillations/min using a mini-bead beater (Biospec Products Inc., Bartlesville, Okla.) with 0.5-mm glass beads, 900 uL RLT buffer and 1% 2-Mercaptoethanol. The total RNA was extracted following the manufacture's protocol with additional wash with RW1 buffer, RPE buffer and DNase treatment (RNase-Free DNase Set, Qiagen). The RNA samples were sent to the DNA microarray Facilities at SUNY Upstate Medical University for microarray hybridization.

With `CC1=C(Br)C(C(Br)Br)OC1=O` (centres unmarked) [BF14] the “reverting antibiotic tolerance of persisters” value (“reverting antibiotic tolerance” below) [1] was “revert antibiotic tolerance in a dose dependent manner”.

For `CC1=C(Br)/C(=C/Br)OC1=O` [BF8], the “response of the reporter strain to homoserine lactones” value [2] was “completely eliminated”, the “cells persistent (retaining antibiotic tolerance) after treatment” value ([3]; 100 μg/mL BF8, 5 h incubation, 200 μg/mL Cip) was 1.6% and the “reduction of the number of persister cells formed compared to the furanone-free control” value ([3]; 100 μg/mL, 5 h incubation in LB medium, 200 μg/mL Cip 3.5 h) was “up to 100 times”. For the same molecule, the “killing effects on persister cells (viability)” value [4] was “did not exhibit any significant killing effects”, the “persister cells rendered sensitive to Cip” value ([1]; 2 μg/mL, then 200 μg/mL Cip) was “around 90%” and the “susceptibility of persisters to Cip” value ([1]; 0.5, 1 and 2 μg/mL, then 200 μg/mL Cip) was “more susceptible to Cip”. The “Expression Ratio PA0182” value ([5]; gene PA0182 (3-ketoacyl-(acyl-carrier-protein) reductase)) was 97.1, the “Expression Ratio PA0422” value ([5]; gene PA0422 (hypothetical protein)) was 4.2 and the “Expression Ratio PA0565” value ([5]; gene PA0565 (hypothetical protein)) was 12.8. For the same molecule, the “Expression Ratio PA0741” value ([5]; gene PA0741 (hypothetical protein)) was 16.5, the “Expression Ratio PA1127” value ([5]; gene PA1127 (oxidoreductase)) was 3.4 and the “Expression Ratio PA1210” value ([5]; gene PA1210 (hypothetical protein)) was 21. For the same molecule, the “Expression Ratio PA1285” value ([5]; gene PA1285 (transcriptional regulator)) was 4.4, the “Expression Ratio PA1334” value ([5]; gene PA1334 (oxidoreductase)) was 227.6 and the “Expression Ratio PA1374” value ([5]; gene PA1374 (hypothetical protein)) was 3.4. The “Expression Ratio PA1470” value ([5]; gene PA1470 (short chain dehydrogenase)) was 4.1, the “Expression Ratio PA2196” value ([5]; gene PA2196 (transcriptional regulator)) was 4.8 and the “Expression Ratio PA2378” value ([5]; gene PA2378 (aldehyde dehydrogenase)) was 3.1. For the same molecule, the “Expression Ratio PA2535” value ([5]; gene PA2535 (oxidoreductase)) was 9, the “Expression Ratio PA2575” value ([5]; gene PA2575 (hypothetical protein)) was 9.1 and the “Expression Ratio PA2580” value ([5]; gene PA2580 (hypothetical protein)) was 8.3. For the same molecule, the “Expression Ratio PA2610” value ([5]; gene PA2610 (hypothetical protein)) was 7.2, the “Expression Ratio PA2691” value ([5]; gene PA2691 (hypothetical protein)) was 3.7 and the “Expression Ratio PA2839” value ([5]; gene PA2839 (hypothetical protein)) was 11. The “Expression Ratio PA2931” value ([5]; gene PA2931 (CifR)) was 11, the “Expression Ratio PA2932_morB” value ([5]; gene PA2932_morB (morphinone reductase)) was 64.9 and the “Expression Ratio PA3133” value ([5]; gene PA3133 (transcriptional regulator)) was 3.5. For the same molecule, the “Expression Ratio PA3223_acpD” value ([5]; gene PA3223_acpD (AzoR3, azoreductase 3)) was 4.8, the “Expression Ratio PA3240” value ([5]; gene PA3240 (hypothetical protein)) was 14.4 and the “Expression Ratio PA3523” value ([5]; gene PA3523 (RND efflux membrane fusion protein precursor)) was 9.6. For the same molecule, the “Expression Ratio PA3920” value ([5]; gene PA3920 (metal transporting P-type ATPase)) was 3.9, the “Expression Ratio PA4167” value ([5]; gene PA4167 (2,5-diketo-D-gluconate reductase B)) was 510.6 and the “Expression Ratio PA4173” value ([5]; gene PA4173 (hypothetical protein)) was 36.7. The “Expression Ratio PA4878” value ([5]; gene PA4878 (transcriptional regulator)) was 4.2.

With `O=C1OC(=C(Br)Br)C=C1CBr` [BF11] the “reverting antibiotic tolerance” value [1] was “revert antibiotic tolerance in a dose dependent manner”.

`CC1=CC(=C(Br)Br)OC1=O` [BF9] was tested, and the “reverting antibiotic tolerance” value [1] was “revert antibiotic tolerance in a dose dependent manner”.

With `O=C1OC(=C(Br)Br)C=C1C(Br)Br` [BF10] the “reverting antibiotic tolerance” value [1] was “revert antibiotic tolerance in a dose dependent manner”.
